# Where two headings read alike, the source gives them in different places.
# Key:
# D-2 dopamine receptor = biological target: T1, D-2 dopamine receptor (Rattus norvegicus, UniProt P61169); experiment: [3H]Spiroperidol binding inhibition, homogenized limbic brain tissue
# T1 construct: from tissue; host or cells: limbic brain tissue
# Text: The results of this testing with compounds representative of the invention whose production is exemplified,infra, are as follows: […]
# [1] = system: conditioned avoidance responding; experiment: Conditioned avoidance, shelf-jump response test; type: in vivo, male CD rats (Charles River); conditions: ip, single dose, rat
# Text: (§1) The antipsychotic properties of the compounds of this invention were established by standard pharmacologically accepted procedures involving conditioned avoidance studies in which trained male CD rats (Charles River), 400-450 g. body weight are exposed to a fifteen second warning tone (conditioned stimulus) continued for an additional fifteen seconds accompanied by electric shock. The rat can avoid the electric shock by jumping to an exposed shelf (shelf-jump response). A response during the initial warning tone is considered an avoidance response, while a response during shock delivery is considered as escape response. The shelf-jump response test procedure follows that of Herman et al., Comm. in Psychopharm., 3, pp. 165-171 (1979). The compounds of this invention were tested at a single dose (40 mg./kg. i.p.) in this procedure and were rated relative to their inhibition of conditioned avoidance responding. A similar test procedure in which a lever press was substituted for a shelf-jump was used to establish the oral (p.o) activity of the test compounds. Orally active compounds were tested over a full dose range and the Avoidance Block activities reported as "AB50 's" (mg./kg.).
# [2] = system: apomorphine-induced stereotyped behavior and climbing; experiment: Antagonism of apomorphine-induced stereotyped behavior and climbing; type: in vivo, CF-1 mice (Charles River); conditions: mice; for ED50: Mus musculus; for ED50 / Apomorphine antagonism ED50, stereotypy / Apomorphine antagonism ED50, climbing: head: p.o. (text: i.p.), apomorphine 1 mg/kg s.c.; for Ratio of the ED50 for stereotyped behavior to the ED50 for climbing: apomorphine-induced stereotypy/climbing
# [3] = biological target: T2, 5-HT1A serotonin receptor (Rattus norvegicus, UniProt P19327); experiment: Inhibition of [3H] 8-OH DPAT binding; conditions: for Ki / inhibition at 1 µM: 5-HT1A
# T2 construct: 44: 1685-1696, 1985; from tissue
# T2 sequence (P19327 1-422): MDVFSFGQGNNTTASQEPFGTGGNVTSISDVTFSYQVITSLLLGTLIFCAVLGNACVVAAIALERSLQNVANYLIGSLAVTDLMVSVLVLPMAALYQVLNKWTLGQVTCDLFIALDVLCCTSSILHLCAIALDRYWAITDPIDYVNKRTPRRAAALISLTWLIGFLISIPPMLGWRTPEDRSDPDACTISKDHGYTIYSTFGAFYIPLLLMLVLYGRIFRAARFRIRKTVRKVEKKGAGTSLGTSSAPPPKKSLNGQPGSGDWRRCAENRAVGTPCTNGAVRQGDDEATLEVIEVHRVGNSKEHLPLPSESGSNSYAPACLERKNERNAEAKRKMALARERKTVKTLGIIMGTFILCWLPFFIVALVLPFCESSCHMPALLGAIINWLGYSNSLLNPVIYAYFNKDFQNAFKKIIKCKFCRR
# Text: 8-OH DPAT (dipropylaminotetralin) from the 5-HT1A serotonin receptor by the procedure of Hall et al., J. Neurochem.
# [4] = system: conditioned avoidance responding; experiment: Conditioned avoidance, discrete trial (lever press), oral; type: in vivo, rat; conditions: for ED50: Rattus norvegicus, po, read-out: Conditioned avoidance, discrete trial AB50 (Avoidance Block); for Conditioned avoidance, discrete trial AB50 (Avoidance Block): p.o.
# Text: as §1
# [5] = read-out: Apomorphine antagonism ED50, climbing
# [6] = read-out: Apomorphine antagonism ED50, stereotypy
# T1 sequence (P61169 whole entry): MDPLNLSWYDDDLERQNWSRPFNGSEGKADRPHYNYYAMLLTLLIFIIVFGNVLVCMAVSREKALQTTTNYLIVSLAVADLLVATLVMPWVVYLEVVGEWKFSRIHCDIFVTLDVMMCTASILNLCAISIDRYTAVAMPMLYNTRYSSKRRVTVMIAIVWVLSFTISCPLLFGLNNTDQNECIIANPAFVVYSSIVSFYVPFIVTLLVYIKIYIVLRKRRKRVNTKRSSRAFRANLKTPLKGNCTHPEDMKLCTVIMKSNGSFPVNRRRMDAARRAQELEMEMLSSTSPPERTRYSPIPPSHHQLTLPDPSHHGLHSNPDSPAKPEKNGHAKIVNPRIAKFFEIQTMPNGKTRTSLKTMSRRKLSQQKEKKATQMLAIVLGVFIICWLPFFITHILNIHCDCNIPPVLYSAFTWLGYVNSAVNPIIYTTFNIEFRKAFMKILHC
Compound,inhibition at 1 µM (D-2 dopamine receptor),inhibition in vivo at 40 mg/kg [1],"ED50 [2, 5]","ED50 [2, 6]",Ki [3],ED50 [4],Ki (D-2 dopamine receptor),"Conditioned avoidance, discrete trial AB50 (Avoidance Block) [4]","Apomorphine antagonism ED50, stereotypy [2]",inhibition at 1 µM [3],"Apomorphine antagonism ED50, climbing [2]",Ratio of the ED50 for stereotyped behavior to the ED50 for climbing [2],Affinity for 5-HT1A serotonin receptor (in words) ([3]; [3H] 8-OH DPAT displacement)
"O=C1C2CC(C(=O)N1CCCCN1CCN(c3cnccn3)CC1)C1C2C2C3CC4C2C4C31 (centres unmarked) [Example 13, Decahydro-3-[4-[4-(2-pyrazinyl)-1-piperazinyl]butyl]-1,5-methano-6,7,9-metheno-2H-pentaleno[1,2-d]azepine-2,4(3H)-dione]",51%,~80%,5.44 mg/kg,32.3 mg/kg,4 nM,40.2 mg/kg,–,–,–,–,–,–,–
"O=C1C2CC(C(=O)N1CCCCN1CCN(c3ncccn3)CC1)C1C3CCC(C3)C21 (centres unmarked) [Example 15, Octahydro-3-[4-[4-(2-pyrimidinyl)-1-piperazinyl]butyl]-2H-1,5:6,9-dimethano-2H-3-benzazepine-2,4(3H)-dione]",–,> 20%,14.3 mg/kg,2.54 mg/kg,0.5 nM,–,174 nM,inactive,–,–,–,–,–
"O=C1C2CC(C(=O)N1CCCCN1CCN(c3cncc(Cl)n3)CC1)c1ccccc12 [Example 9, 2,3,4,5-Tetrahydro-3-[4-[4-(6-chloro-2-pyrazinyl)-1-piperazinyl]butyl]-1,5-methano-1H-3-benzazepine-2,4(3H, 5H)-dione]",0%,> 20%,–,–,–,–,–,–,inactive,61%,–,–,–
"O=C1C2CC(C(=O)N1CCCCN1CCN(c3cccc(C(F)(F)F)c3)CC1)C1CCCC21 (centres unmarked) [Example 11, Hexahydro-3-[4-[4-(3-trifluoromethylphenyl)-1-piperazinyl]butyl]-1,5-methano-cyclopent[d]azepine-2,4(1H, 3H)-dione]",100%,> 20%,18.9 mg/kg,42.4 mg/kg,2 nM,46.2 mg/kg,–,–,–,–,–,–,–
"O=C1C2CC(C(=O)N1CCCCN1CCN(c3cncc(Cl)n3)CC1)C1C2C2C3CC4C2C4C31 (centres unmarked) [Example 7, Decahydro-3-[4-[4-(6-chloro-2-pyrazinyl)-1-piperazinyl]butyl]-1,5-methano-6,7,9-metheno-2H-pentaleno[1,2-d]azepine-2,4(3H)-dione]",54%,> 20%,–,–,6.95 nM,–,–,inactive,inactive,–,inactive,–,–
"CN(C)CCCN1c2ccccc2Sc2ccc(Cl)cc21 [chlorpromazine, reference compound]",–,–,–,–,–,–,–,–,–,–,–,1.51,–
"O=C(CCCN1CCC(O)(c2ccc(Cl)cc2)CC1)c1ccc(F)cc1 [haloperidol, reference compound]",–,–,–,–,–,–,–,–,–,–,–,1.00,–
"O=C1C2CC(C(=O)N1CCCCN1CCN(c3ccc4ccccc4n3)CC1)C1C2C2C3CC4C2C4C31 (centres unmarked) [Example 14, Decahydro-3-[4-[4-(2-quinolyl)-1-piperazinyl]butyl]-1,5-methano-6,7,9-methano-2H-pentaleno[1,2-d]azepine-2,4(3H)-dione]",45%,~20%,44 mg/kg,–,–,–,–,–,inactive,86%,–,–,–
"O=C1C2CC(C(=O)N1CCCCN1CCN(c3cncc(Cl)n3)CC1)C1CC=CC21 (centres unmarked) [Example 5, 5,5a,8,8a-Tetrahydro-3-[4-[4-(6-chloro-2-pyrazinyl)-1-piperazinyl]butyl]-1,5-methanocyclopent[d]azepine-2,4(1H,3H)-dione]",25%,> 20%,47.2 mg/kg,–,60 nM,–,–,active,inactive,–,–,–,–
"O=C1C2CC(C(=O)N1CCCCN1CCN(c3ncccn3)CC1)c1ccccc12 [Example 8, 2,3,4,5-Tetrahydro-3-[4-[4-(2-pyrimidinyl)-1-piperazinyl]butyl]-1,5-methano-1H-3-benzazepine-2,4(3H, 5H)-dione]",23%,> 20%,–,–,–,–,–,inactive,inactive,89%,inactive,–,–
"O=C1C2CC(C(=O)N1CCCCN1CCN(c3cnccn3)CC1)C1CCCC21 (centres unmarked) [Example 3, Hexahydro-3-[4-[4-(2-pyrazinyl)-1-piperazinyl]butyl]-1,5-methanocyclopent[d]azepine-2,4(1H,3H)-dione]",23%,~80%,4.91 mg/kg,30.9 mg/kg,41 nM,–,–,inactive,–,–,–,–,–
"O=C1C2CC(C(=O)N1CCCCN1CCN(c3cncc(Cl)n3)CC1)C1CCCC21 (centres unmarked) [Example 2, Hexahydro-3-[4-[4-(6-chloro-2-pyrazinyl)-1-piperazinyl]butyl]-1,5-methanocyclopent[d]azepine-2,4(1H,3H)-dione]",20%,> 20%,24.2 mg/kg,–,31 nM,–,–,inactive,inactive,–,–,–,–
"O=C1C2CC(C(=O)N1CCCCN1CCN(c3ncccn3)CC1)C1C2C2C3CC4C2C4C31 (centres unmarked) [Example 6, Decahydro-3-[4-[4-(2-pyrimidinyl)-1-piperazinyl]butyl]-1,5-methano-6,7,9-metheno-2H-pentaleno[1,2-d]azepine-2,4(3H)-dione]",–,~80%,0.4 mg/kg,–,0.23 nM,33.8 mg/kg,56 nM,–,inactive,–,–,–,–
"O=C1CC2(CCCC2)CC(=O)N1CCCCN1CCN(c2ncccn2)CC1 [buspirone, reference compound]",–,–,–,–,–,–,–,–,–,–,–,–,potent affinity
"COc1ccccc1N1CCN(CCCCN2C(=O)C3CC(C2=O)C2C3C3C4CC5C3C5C42)CC1 (centres unmarked) [Example 10, Decahydro-3-[4-[4-(2-methoxyphenyl)-1-piperazinyl]butyl]-1,5-methano-6,7,9-metheno-2H-pentaleno[1,2-d]azepine-2,4(3H)-dione]",–,> 20%,4.71 mg/kg,10 mg/kg,0.29 nM,–,18 nM,inactive,–,–,–,–,–
"O=C1C2CC(C(=O)N1CCCCN1CCN(c3ncccn3)CC1)C1CC=CC21 (centres unmarked) [Example 4, 5,5a,8,8a-Tetrahydro-3-[4-[4-(2-pyrimidinyl)-1-piperazinyl]butyl]1,5-methanocyclopent[d]azepine-2,4(1H,3H)-dione]",59%,~80%,5.5 mg/kg,–,3.5 nM,–,–,weak,inactive,–,–,–,–
"O=C1C2CC(C(=O)N1CCCCN1CCN(c3cccc(C(F)(F)F)c3)CC1)C1C2C2C3CC4C2C4C31 (centres unmarked) [Example 12, Decahydro-3-[4-[4-(3-trifluoromethylphenyl)-1-piperazinyl]butyl]-1,5-methano-6,7,9-metheno-2H-pentaleno[1,2-d]azepine-2,4(3H)-dione]",–,< 20%,–,–,0.2 nM,–,30 nM,–,inactive,–,inactive,–,–
"O=C1C2CC(C(=O)N1CCCCN1CCN(c3ncccn3)CC1)C1CCCC21 (centres unmarked) [Example 1, Hexahydro-3-[4-[4-(2-pyrimidinyl)-1-piperazinyl]butyl]-1,5-methanocyclopent[d]azepine-2,4(1H,3H)-dione]",54%,> 20%,4.08 mg/kg,–,3 nM,40.1 mg/kg,–,–,inactive,–,–,–,–

# Source: patent US4797488A, “Psychotropic polycyclic imides” (American Home Products Corporation, priority 1987, dated 1989)
